Experimental data taken from patent US20150118726A1, “Processes Using Antibiotic Alternatives In Bioethanol Production” (Buckman Laboratories International, Inc., priority 2010, published 2015).

Tests used:
[1] = system: Lactobacillus fermentans; assay: MRS broth test of biocide combinations (Kull synergism method); format: cell-based; settings: 25% MRS broth, 37° C., 24 hours
Method: Lactobacilli MRS broth (25% strength) was prepared and dispensed in 10 ml amounts into test tubes and autoclaved for 20 minutes at 121° C. The biocides were added to the test tubes in the desired concentrations, and then 100 microliters of an overnight broth of Lactobacillus fermentans were added to the respective test tubes and incubated at 37° C. for 24 hours.
QA/Qa+QB/Qb is less than 1.
Qa=Concentration of Compound A in parts per million, acting alone, which produced an endpoint; Qb=Concentration of Compound B in parts per million, acting alone, which produced an endpoint; QA=Concentration of Compound A in parts per million, in the mixture, which produced an endpoint; QB=Concentration of Compound B in parts per million, in the mixture, which produced an endpoint.
When the sum of QA/Qa and QB/Qb is greater than one, antagonism is indicated and when the sum is equal to one, additivity is indicated. When the sum of this value is less than one, synergism exists.

[2] = Persistence of DBNPA under fermentation tank conditions; format: physicochemical; settings: under the conditions in the fermentation tank, based on laboratory work
Method: Under the conditions in the fermentation tank, DBNPA is expected to last intact only about 1-2 hours, based on laboratory work. The stillage, i.e., fermented unevaporated product (post “beer tank”) of distillation, is centrifuged, and dried (e.g., about 1 hour at about 250-300° F.), then the mixture is pumped over to a final tank where it is called the DDGS. DDGS is about ⅓ mass of the starting raw material for corn. The chemistry of DBNPA is not expected to endure and survive the centrifugation and heat of drying prior to entering distillers dried grains with solubles (DDGS) stage. In the corn-to-ethanol process, for example, DBNPA is expected to degrade to carbon dioxide and water vapor, and, as such, would have low environmental impact. […] The application of DBNPA avoids the use of antibiotics, which can remain stable throughout the process. The use of DBNPA makes the use of antibiotics unnecessary. The use of DBNPA is more economical since the cost of antibiotics (as the only treatment widely employed) can be relatively high and costly to the fermentation. […]

[3] = system: Saccharomyces cereviseae; assay: Corn mash ethanol fermentation: effect of biocide on yeast / fermentation progress; format: cell-based, Saccharomyces cerevisiae
Method: (§1) Experiments were conducted to evaluate the effectiveness of a nonoxidizing biocide as an antimicrobial agent for control of Lactobacillus infections in ethanol fermentation. The nonoxidizing biocide was BRONAM® 20 (20% 2,2-dibromo-3-nitrilopropionamide). The lactobacilli was L. plantarum. The yeast was Saccharomyces cereviseae. Corn mashes containing approximately 30% (w/w) dry solids were used.
A 0.2-g/ml suspension of yeast (Saccharomyces cerevisiae; Ethanol Red; Fermentis, Marcq-en-Baroeul, France) was prepared in a sterile 250-ml flask. This suspension was incubated and mixed for 20 minutes at 40° C. before inoculation into the fermentation flasks. Each fermentation flask was inoculated with 160 μl of the yeast suspension to attain an initial concentration of 10^7 yeast cells/ml. After the initial 1-hr incubation with bacteria, the flasks were inoculated with yeast and dosed with BRONAM® 20. […]
The mass of each flask was recorded after all additions were made, and the sanitized fermentation traps were reinserted into each flask. The mass of each flask with the trap in place was also recorded. […] The mass of each flask with the traps in place were measured periodically throughout fermentation to estimate the rate of fermentation (the mass of the fermentation flasks decreases when carbon dioxide is lost by bubbling out of the fermentation traps). […]

[4] = system: L. plantarum; assay: Corn mash ethanol fermentation infected with L. plantarum, treated with nonoxidizing biocide; format: cell-based, Lactobacillus plantarum; settings: based on experimental results
Method: as §1
For slurry preparation, the moisture of ground corn was determined gravimetrically using a moisture balance by measuring the mass loss that occurred upon drying. The amount of corn, deionized (DI) water, and enzyme needed to prepare 160 g of corn slurry at a total dry solids concentration of 30% (w/w) for each replicate was determined. […]
For fermentation, once the mash was cooled, the entire contents (approximately 160 g) of each Labomat beaker were transferred to a sterile 250-ml Erlenmeyer flask. The masses of the mash and flasks were recorded, and the mass of mash transferred to the fermentation flasks was calculated. […]
The L. plantarum culture was prepared for inoculation by growing throughout the day in 100-ml of MRS broth. […] The initial concentration of the bacteria was determined by plating serial dilutions of the culture on MRS agar containing cycloheximide and incubating at 32° C. for 2 days before counting colonies. […]

Nisin
Qa, concentration of Compound A acting alone which produced an endpoint ([1]; Example 2): 1.0 ppm | Qa, concentration of Compound A acting alone which produced an endpoint ([1]; Example 3): 1.0 ppm

O=[N+]([O-])C(Br)(CO)CO [2-bromo-2-nitropropane-1,3-diol]
Qb, concentration of Compound B acting alone which produced an endpoint ([1]; Example 2): 50 ppm

N#CC(Br)(Br)C(N)=O [2,2-dibromo-3-nitrilopropionamide]
time DBNPA lasts intact [2]: 1 to 2 h | effect on yeast involved in fermentation [3]: does not kill the yeast | effect on bacteria (lactobacilli) [4]: kills the bacteria | Qb, concentration of Compound B acting alone which produced an endpoint ([1]; Example 3): 100 ppm
